Reference: patent US20110118314A1, “PIPERIDINE ANALOGS AS GLYCOGEN SYNTHASE ACTIVATORS” (priority 2009, published 2011)

Tested on: glycogen synthase
Experiment: Glycogen Synthase (GS) Assay
Format: biochemical
Conditions: for EC50: compound concentration needed to give 50% maximum activation; for GS SC200: compound concentration needed to stimulate 200% of the enzyme activity
Method: The following tests were carried out in order to determine the activity of the compounds of formula (I).
Twelve μL per well of substrate solution containing glycogen (4.32 mg/mL), 2.67 mM UDP-glucose, 21.6 mM phospho(enol)pyruvate and 2.7 mM NADH in 30 mM glycylglycine, pH 7.3 buffer was added into a polystyrene 384-well assay plate (BD Biosciences).
Compound solutions (8 μL/well) at various concentrations (0-300 μM) were added to the assay plate (columns 5-24). Compound solution contains 30 mM glycylglycine, pH 7.3, 40 mM KCl, 20 mM MgC12, 9.2% DMSO, with (columns 15-24) or without (columns 5-14) 20 mM glucose 6-phosphate.
Enzyme solution (12 μL/well) containing glycogen synthase (16.88 μg/mL), pyruvate kinase (0.27 mg/mL), lactate dehydrogenase (0.27 mg/mL) in 50 mM Tris-HCl, pH 8.0, 27 mM DTT and bovine serum albumin (BSA, 0.2 mg/mL) was added to the assay plate (columns 3-24). As a blank control, enzyme solution without glycogen synthase was added into the top half wells of columns 1-2. To the bottom half wells of columns 1-2 were added a known activator, glucose 6-phosphate (at final concentration 5 mM) in addition to the enzyme solution. The reaction mixture was incubated at room temperature. The assay plate was then read for absorbance at 340 nm on an Envision reader every 3 minutes up to a total of 15 minutes.
The enzyme activity (with or without compound) was calculated by the reaction rate and represented by the optical density change (SOD) per minute. Percent stimulation of glycogen synthase activity by a compound at various concentrations was calculated by the following formula: […]
where Rs is the reaction rate of the enzyme in the presence of compound and Rt is the reaction rate of the enzyme in the absence of compound.
SC200 is defined as the compound concentration that is needed to stimulate 200% of the enzyme activity. EC50 is defined as the compound concentration that is needed to give 50% maximum activation.
Compounds from Example 1 through Example 36 were assayed according to assay procedures described above and the results are listed in Table 1 below: […]

SMILES | EC50 [nM] | GS SC200 [µM]
COc1cc(F)c(F)cc1-c1ccc(OCC2CCCN(C(=O)N(C)CC(=O)O)C2)cc1 (stereo not drawn) [Example 25, {[3-(4′,5′-Difluoro-2′-methoxy-biphenyl-4-yloxymethyl)-piperidine-1-carbonyl]-methyl-amino}-acetic acid] | 290 | 0.02
COc1cc(F)c(F)cc1-c1ccc(OCC2CCCN(C(=O)N3CCC[C@H]3C(=O)O)C2)cc1 (stereo partly drawn) [Example 27, (S)-1-[3-(4′,5′-Difluoro-2′-methoxy-biphenyl-4-yloxymethyl)-piperidine-1-carbonyl]-pyrrolidine-2-carboxylic acid] | 1290 | 0.22
COc1cc(F)c(F)cc1-c1ccc(OCC2CCCN(C(=O)N(CCC(=O)O)Cc3ccccc3)C2)cc1 (stereo not drawn) [Example 28, 3-{Benzyl-[3-(4′,5′-difluoro-2′-methoxy-biphenyl-4-yloxymethyl)-piperidine-1-carbonyl]-amino}-propionic acid] | 6290 | 2.52
COc1cc(F)c(F)cc1-c1ccc(OCC2CCCN(C(=O)N(C)CC(=O)NS(C)(=O)=O)C2)cc1 (stereo not drawn) [Example 31, 3-(4′,5′-Difluoro-2′-methoxy-biphenyl-4-yloxymethyl)-piperidine-1-carboxylic acid (2-methanesulfonylamino-2-oxo-ethyl)-methyl-amide] | 380 | 0.11
COc1cc(F)c(F)cc1-c1ccc(OC[C@@H]2CCCN(C(=O)N(C)CC(=O)NS(C)(=O)=O)C2)cc1 [Example 33, (R)-3-(4′,5′-Difluoro-2′-methoxy-biphenyl-4-yloxymethyl)-piperidine-1-carboxylic acid (2-methanesulfonylamino-2-oxo-ethyl)-methyl-amide] | 2030 | 0.41
COc1cc(F)c(F)cc1-c1ccc(OCC2CCCN(C(=O)N(CC(=O)NS(C)(=O)=O)Cc3ccccc3)C2)cc1 (stereo not drawn) [Example 34, 3-(4′,5′-Difluoro-2′-methoxy-biphenyl-4-yloxymethyl)-piperidine-1-carboxylic acid benzyl-(2-methanesulfonylamino-2-oxo-ethyl)-amide] | 520 | 0.07
COc1cc(F)c(F)cc1-c1ccc(OCC2CCN(C(=O)N(C)CC(=O)NS(C)(=O)=O)C2)cc1 (stereo not drawn) [Example 36, 3-(4′,5′-Difluoro-2′-methoxy-biphenyl-4-yloxymethyl)-pyrrolidine-1-carboxylic acid (2-methanesulfonylamino-2-oxo-ethyl)-methyl-amide] | 7680 | 0.8

More lines, in order of falling EC50, values ahead:

EC50 [nM] | SMILES | GS SC200 [µM]
24700 | COc1cc(F)c(F)cc1-c1ccc(OCC2CCN(C(=O)N(C)CC(=O)O)C2)cc1 (stereo not drawn) [Example 26, {[3-(4′,5′-Difluoro-2′-methoxy-biphenyl-4-yloxymethyl)-pyrrolidine-1-carbonyl]-methyl-amino}-acetic acid] | 5.97
10400 | COc1cc(F)c(F)cc1-c1ccc(OCC2CCN(C(=O)N(CCC(=O)O)Cc3ccccc3)C2)cc1 (stereo not drawn) [Example 29, 3-{Benzyl-[3-(4′,5′-difluoro-2′-methoxy-biphenyl-4-yloxymethyl)-pyrrolidine-1-carbonyl]-amino}-propionic acid] | 2.55
8290 | COc1cc(F)c(F)cc1-c1ccc(OCC2CCCN(C(=O)N(C)Cc3nnn[nH]3)C2)cc1 (stereo not drawn) [Example 30, 3-(4′,5′-Difluoro-2′-methoxy-biphenyl-4-yloxymethyl)-piperidine-1-carboxylic acid methyl-(1H-tetrazol-5-ylmethyl)-amide] | 1.38
820 | COc1cc(F)c(F)cc1-c1ccc(OCC2CCN(C(=O)N(CC(=O)NS(C)(=O)=O)Cc3ccccc3)C2)cc1 (stereo not drawn) [Example 35, 3-(4′,5′-Difluoro-2′-methoxy-biphenyl-4-yloxymethyl)-pyrrolidine-1-carboxylic acid benzyl-(2-methanesulfonylamino-2-oxo-ethyl)-amide] | 0.28
200 | COc1cc(F)c(F)cc1-c1ccc(OC[C@H]2CCCN(C(=O)N(C)CC(=O)NS(C)(=O)=O)C2)cc1 [Example 32, (S)-3-(4′,5′-Difluoro-2′-methoxy-biphenyl-4-yloxymethyl)-piperidine-1-carboxylic acid (2-methanesulfonylamino-2-oxo-ethyl)-methyl-amide] | 0.06
